Data on two compounds can be found in article PMC7574619, “Engineering of NADPH Supply Boosts Photosynthesis-Driven Biotransformations” (ACS Catalysis, 2020).

This assay addresses T1, YqjM (Bacillus subtilis, UniProt P54550).
T1 construct: gene namA; purified YqjM flavoenzyme
T1 sequence (P54550 2-338): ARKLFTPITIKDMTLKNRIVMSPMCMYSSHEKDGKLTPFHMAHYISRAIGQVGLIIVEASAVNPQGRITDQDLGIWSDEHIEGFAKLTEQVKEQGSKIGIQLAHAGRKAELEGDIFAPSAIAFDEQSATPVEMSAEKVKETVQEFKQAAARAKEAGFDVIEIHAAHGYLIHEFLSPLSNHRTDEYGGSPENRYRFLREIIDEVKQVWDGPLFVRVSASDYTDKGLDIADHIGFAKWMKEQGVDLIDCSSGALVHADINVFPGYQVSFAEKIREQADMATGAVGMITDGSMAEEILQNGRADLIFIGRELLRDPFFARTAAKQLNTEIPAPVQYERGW
Put plainly: stopped-flow, flavin reduction at […] nm, anaerobic. The format is biochemical. The conditions noted are these: Tris-HCl 50 mM, pH 7.5, 25 °C; 25 μM YqjM; reductive half reaction.

What is called Kd is the free concentration of one partner at which half of the binding sites on the other are occupied at equilibrium, for simple one-to-one binding. Low values mean higher affinity, high ones lower affinity.

Compound `NC(=O)C1=CN([C@@H]2O[C@H](COP(=O)(O)OP(=O)(O)OC[C@H]3O[C@@H](n4cnc5c(N)ncnc54)[C@H](O)[C@@H]3O)[C@@H](O)[C@H]2O)C=CC1` [NADH] had a Kd of 140 ± 24.5 µM. On to `NC(=O)C1=CN([C@@H]2O[C@H](COP(=O)(O)OP(=O)(O)OC[C@H]3O[C@@H](n4cnc5c(N)ncnc54)[C@H](OP(=O)(O)O)[C@@H]3O)[C@@H](O)[C@H]2O)C=CC1` [NADPH], for which binding was characterised by a dissociation constant (Kd) of 39.8 ± 7.1 µM.
